From patent US20240116985A1, “STAPLED PEPTIDES AND METHODS THEREOF” (priority 2020, published 2024)
Read-outs that look alike come from different tables or passages of the source.

Columns and labels:
[1] = target: T1, full-length beta-Catenin (Uniprot ID P35222) (Homo sapiens, UniProt P35222); test: Fluorescence polarization IC50 (beta-catenin / 5FAM-TCF4 10-53 competition); type: binding; settings: read-out: beta-Catenin FP IC50
T1 construct: 10 nM full-length beta-Catenin (Uniprot ID P35222)
T1 sequence (P35222 1-781): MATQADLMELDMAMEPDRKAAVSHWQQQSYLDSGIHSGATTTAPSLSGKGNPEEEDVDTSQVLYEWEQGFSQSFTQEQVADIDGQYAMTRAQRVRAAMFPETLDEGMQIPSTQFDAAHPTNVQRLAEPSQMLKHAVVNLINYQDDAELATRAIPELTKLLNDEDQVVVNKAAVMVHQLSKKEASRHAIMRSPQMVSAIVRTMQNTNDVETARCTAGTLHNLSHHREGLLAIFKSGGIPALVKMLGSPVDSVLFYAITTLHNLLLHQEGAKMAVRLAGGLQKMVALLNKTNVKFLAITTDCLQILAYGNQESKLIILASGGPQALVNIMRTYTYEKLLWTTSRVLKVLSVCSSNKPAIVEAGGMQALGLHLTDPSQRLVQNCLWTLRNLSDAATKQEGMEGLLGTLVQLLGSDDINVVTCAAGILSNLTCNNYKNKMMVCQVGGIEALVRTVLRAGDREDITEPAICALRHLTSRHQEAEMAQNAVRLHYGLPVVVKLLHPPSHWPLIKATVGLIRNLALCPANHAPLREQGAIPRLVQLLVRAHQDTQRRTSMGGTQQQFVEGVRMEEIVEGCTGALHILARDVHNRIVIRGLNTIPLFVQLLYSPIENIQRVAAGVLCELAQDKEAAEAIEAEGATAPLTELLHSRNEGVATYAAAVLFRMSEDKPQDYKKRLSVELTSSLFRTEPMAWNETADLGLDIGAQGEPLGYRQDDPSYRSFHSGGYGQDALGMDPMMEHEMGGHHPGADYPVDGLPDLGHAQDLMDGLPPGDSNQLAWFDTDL

[2] = target: T2, beta-catenin/TCF4 engagement (Homo sapiens, UniProt P35222); test: Nano-BRET target engagement assay (B-cat-Halo & TCF4-Luc in HEK293 cells); type: cell-based; settings: read-out: NanoBRET Abs IC50
T2 construct: expressed in transfected cells; host or cells: HEK293
T2 sequence (P35222 1-781): T1 sequence (P35222 1-781)

| IC50 ([1]; fluorescence polarization) [nM] | IC50 ([2]; absolute IC50) [nM] | IC50 [2] [nM] | IC50 [1] [nM] | SMILES |
| --- | --- | --- | --- | --- |
| 17 | 9700 |  |  | CC(=O)N1CCC[C@]12CC=CCCCC1(CCCC=CCCCOC(=O)N3CC[C@@](C(=O)N[C@@H](Cc4ccsc4)C(=O)N[C@@H](Cc4csc5ccccc45)C(=O)N[C@@H](CO)C(N)=O)(C3)NC(=O)[C@H](Cc3ccccc3)NC(=O)[C@H](Cc3ccccc3)NC(=O)[C@H](C)NC(=O)[C@H](C)NC(=O)[C@H](Cc3ccccc3C(=O)O)NC(=O)[C@H](CC(=O)O)NC1=O)NC(=O)[C@H](CC(C)(C)C)NC(=O)[C@H](CC(=O)O)NC2=O (single isomer, unassigned) [I-1665, Ac-PL3-Asp-Npg-B5-Asp-2COOHF-Ala-Ala-Phe-Phe-PyrS2-3Thi-BztA-Ser-NH2] |
| 15 | 6500 |  |  | CC(=O)N1CCC[C@]12CC=CCCCC1(CCCC=CCCCOC(=O)N3CC[C@@](C(=O)N[C@@H](Cc4ccsc4)C(=O)N[C@@H](Cc4csc5ccccc45)C(=O)N[C@@H](CO)C(N)=O)(C3)NC(=O)[C@H](CC(C)C)NC(=O)[C@H](Cc3ccccc3)NC(=O)[C@H](C)NC(=O)[C@H](C)NC(=O)[C@H](Cc3ccccc3C(=O)O)NC(=O)[C@H](CC(=O)O)NC1=O)NC(=O)[C@H](CC(C)(C)C)NC(=O)[C@H](CC(=O)O)NC2=O (single isomer, unassigned) [I-1666, Ac-PL3-Asp-Npg-B5-Asp-2COOHF-Ala-Ala-Phe-Leu-PyrS2-3Thi-BztA-Ser-NH2] |
| 29 | 16400 |  |  | CC(=O)N1CCC[C@]12CC=CCCCC1(CCCC=CCCCOC(=O)N3CC[C@@](C(=O)N[C@@H](Cc4ccsc4)C(=O)N[C@@H](Cc4csc5ccccc45)C(=O)N[C@H](CO)[C@@H](C)O)(C3)NC(=O)[C@H](Cc3ccccc3)NC(=O)[C@H](Cc3ccccc3)NC(=O)[C@H](C)NC(=O)[C@H](C)NC(=O)[C@H](Cc3ccccc3C(=O)O)NC(=O)[C@H](CC(=O)O)NC1=O)NC(=O)[C@H](CC(C)(C)C)NC(=O)[C@H](CC(=O)O)NC2=O (single isomer, unassigned) [I-1668, Ac-PL3-Asp-Npg-B5-Asp-2COOHF-Ala-Ala-Phe-Phe-PyrS2-3Thi-BztA-Thro1] |
| 30 | 11800 |  |  | CC(=O)N1CCC[C@]12CC=CCCCC1(CCCC=CCCCOC(=O)N3CC[C@@](C(=O)N[C@@H](Cc4ccsc4)C(=O)N[C@@H](Cc4csc5ccccc45)C(=O)N[C@H](CO)[C@@H](C)O)(C3)NC(=O)[C@H](Cc3ccccc3)NC(=O)[C@H](Cc3ccccc3)NC(=O)[C@H](C)NC(=O)[C@H](C)NC(=O)[C@H](Cc3ccccc3C(=O)O)NC(=O)[C@H](CC(=O)O)NC1=O)NC(=O)[C@H](CC(C)(C)C)NC(=O)[C@H](CC(=O)O)NC2=O (single isomer, unassigned) [I-1669, Ac-PL3-Asp-Npg-B5-Asp-2COOHF-Ala-Ala-Phe-Phe-PyrS2-3Thi-BztA-Thro1] |
| 213 |  | > 20000 |  | CC(=O)N1CCC[C@]12CC=CCC1(CC=CCCCCCOC(=O)N3CC[C@](C(=O)N[C@@H](Cc4ccsc4)C(=O)N[C@@H](Cc4csc5ccccc45)C(=O)N[C@@H](CCC(N)=O)C(N)=O)(C3)NC(=O)[C@H](CC(C)C)NC(=O)[C@H](Cc3ccccc3)NC(=O)[C@H](C)NC(=O)[C@H](C)NC(=O)[C@H](CC(=O)O)NC(=O)[C@H](CC(=O)O)NC1=O)NC(=O)[C@H](CC(C)(C)C)NC(=O)[C@H](CC(=O)O)NC2=O (single isomer, unassigned) [I-2158, Ac-PL3-Asp-Npg-B3-Asp-Asp-Ala-Ala-Phe-Leu-PyrS4-3Thi-BztA-Gln-NH2] |
| 116 |  | > 20000 |  | CC(=O)N1CCC[C@]12CC=CCC1(CC=CCCCCCOC(=O)N3CC[C@](C(=O)N[C@@H](Cc4ccsc4)C(=O)N[C@@H](Cc4csc5ccccc45)C(=O)N[C@@H](CCC(N)=O)C(N)=O)(C3)NC(=O)[C@H](CC(C)C)NC(=O)[C@H](Cc3ccccc3)NC(=O)[C@H](C)NC(=O)[C@H](C)NC(=O)[C@H](CC(=O)O)NC(=O)[C@H](CC(=O)O)NC1=O)NC(=O)[C@H](CC(C)(C)C)NC(=O)[C@H](CC(=O)O)NC2=O (single isomer, unassigned) [I-2159, Ac-PL3-Asp-Npg-B3-Asp-Asp-Ala-Ala-Phe-Leu-PyrS4-3Thi-BztA-Gln-NH2] |
|  | 18800 |  | 8 | CC(=O)N1CCC[C@]12CC=CCCCC1(CCCC=CCCCOC(=O)N3CC[C@@](C(=O)N[C@@H](Cc4ccccc4Cl)C(=O)N[C@@H](Cc4csc5ccccc45)C(=O)N[C@H](CO)Cc4ccccc4)(C3)NC(=O)[C@H](CC(N)=O)NC(=O)[C@H](Cc3ccccc3)NC(=O)[C@H](C)NC(=O)[C@H](C)NC(=O)[C@H](CC(=O)O)NC(=O)[C@H](CC(=O)O)NC1=O)NC(=O)[C@H](CC(C)(C)C)NC(=O)[C@H](CC(=O)O)NC2=O (stereo partly drawn) [I-1083, Ac-PL3-Asp-Npg-B5-Asp-Asp-Ala-Ala-Phe-Asn-PyrS2-2C1F-BztA-Pheo1] |
| 8 | 12000 |  |  | CC(=O)N1CCC[C@]12CC=CCCCC1(CCCC=CCCCOC(=O)N3CC[C@@](C(=O)N[C@@H](Cc4ccccc4Cl)C(=O)N[C@@H](Cc4csc5ccccc45)C(=O)N[C@@H](CCO)C(N)=O)(C3)NC(=O)[C@H](CO)NC(=O)[C@H](Cc3ccccc3)NC(=O)[C@H](C)NC(=O)[C@H](C)NC(=O)[C@H](CC(=O)O)NC(=O)[C@H](CC(=O)O)NC1=O)NC(=O)[C@H](CC1CCCCC1)NC(=O)[C@H](CC(=O)O)NC2=O (stereo partly drawn) [I-1137, Ac-PL3-Asp-Cha-B5-Asp-Asp-Ala-Ala-Phe-Ser-PyrS2-2C1F-BztA-Hse-NH2] |
| 18 | 19800 |  |  | CC(=O)N1CCC[C@]12CC=CCCCC1(CCCC=CCCCOC(=O)N3CC[C@@](C(=O)N[C@@H](Cc4ccccc4Cl)C(=O)N[C@@H](Cc4csc5ccccc45)C(=O)N[C@@H](CC(C)C)C(N)=O)(C3)NC(=O)[C@H](CO)NC(=O)[C@H](Cc3ccccc3)NC(=O)[C@H](C)NC(=O)[C@H](C)NC(=O)[C@H](CC(=O)O)NC(=O)[C@H](CC(=O)O)NC1=O)NC(=O)[C@H](CC1CCCCC1)NC(=O)[C@H](CC(=O)O)NC2=O (stereo partly drawn) [I-1138, Ac-PL3-Asp-Cha-B5-Asp-Asp-Ala-Ala-Phe-Ser-PyrS2-2C1F-BztA-Leu-NH2] |
| 22 | 18000 |  |  | CC(=O)N1CCC[C@]12CC=CCCCC1(CCCC=CCCCOC(=O)N3CC[C@@](C(=O)N[C@@H](Cc4ccccc4Cl)C(=O)N[C@@H](Cc4csc5ccccc45)C(=O)N[C@H](C(N)=O)[C@@H](C)O)(C3)NC(=O)[C@H](CC(C)C)NC(=O)[C@H](Cc3ccccc3)NC(=O)[C@H](C)NC(=O)[C@H](C)NC(=O)[C@H](CC(=O)O)NC(=O)[C@H](CC(=O)O)NC1=O)NC(=O)[C@H](CC1CCCCC1)NC(=O)[C@H](CC(=O)O)NC2=O (stereo partly drawn) [I-1139, Ac-PL3-Asp-Cha-B5-Asp-Asp-Ala-Ala-Phe-Leu-PyrS2-2C1F-BztA-Thr-NH2] |
| 12 | > 20000 |  |  | CC(=O)N1CCC[C@]12CC=CCCCC1(CCCC=CCCCOC(=O)N3CC[C@@](C(=O)N[C@@H](Cc4ccccc4Cl)C(=O)N[C@@H](Cc4csc5ccccc45)C(=O)N[C@@H](CCC(N)=O)C(N)=O)(C3)NC(=O)[C@H](CO)NC(=O)[C@H](Cc3ccccc3)NC(=O)[C@H](C)NC(=O)[C@H](CC(C)C)NC(=O)[C@H](CC(=O)O)NC(=O)[C@H](CC(=O)O)NC1=O)NC(=O)[C@H](Cc1ccccc1)NC(=O)[C@H](CC(=O)O)NC2=O (stereo partly drawn) [I-1153, Ac-PL3-Asp-Phe-B5-Asp-Asp-Leu-Ala-Phe-Ser-PyrS2-2C1F-BztA-Gln-NH2] |

| SMILES | IC50 ([1]; fluorescence polarization) [nM] | IC50 ([2]; absolute IC50) [nM] | IC50 [2] [nM] | IC50 [1] [nM] |
| --- | --- | --- | --- | --- |
| CC(=O)N1CCC[C@]12CC=CCCCC1(CCCC=CCCCOC(=O)N3CC[C@@](C(=O)N[C@@H](Cc4ccsc4)C(=O)N[C@@H](Cc4csc5ccccc45)C(=O)N[C@H](CO)[C@@H](C)O)(C3)NC(=O)[C@H](CC(C)C)NC(=O)[C@H](Cc3ccccc3)NC(=O)[C@H](C)NC(=O)[C@H](C)NC(=O)[C@H](Cc3ccccc3C(=O)O)NC(=O)[C@H](CC(=O)O)NC1=O)NC(=O)[C@H](CC(C)(C)C)NC(=O)[C@H](CC(=O)O)NC2=O (single isomer, unassigned) [I-1670, Ac-PL3-Asp-Npg-B5-Asp-2COOHF-Ala-Ala-Phe-Leu-PyrS2-3Thi-BztA-Thro1] | 11 | 7900 |  |  |
| CC(=O)N1CCC[C@]12CC=CCCCC1(CCCC=CCCCOC(=O)N3CC[C@@](C(=O)N[C@@H](Cc4ccsc4)C(=O)N[C@@H](Cc4csc5ccccc45)C(=O)N[C@@H](CCC(N)=O)C(N)=O)(C3)NC(=O)[C@H](CC(C)C)NC(=O)C(Cc3cccc(C(=O)Oc4ccccc4)c3)NC(=O)[C@H](C)NC(=O)[C@H](C)NC(=O)[C@H](CN(CC(=O)O)CC(F)(F)F)NC(=O)[C@H](CC(=O)O)NC1=O)NC(=O)[C@H](CC(C)(C)C)NC(=O)[C@H](CC(=O)O)NC2=O (single isomer, unassigned) [I-2151, Ac-PL3-Asp-Npg-B5-Asp-TfeGA-Ala-Ala-3CO2PhF-Leu-PyrS2-3Thi-BztA-Gln-NH2] | 58 |  | 14600 |  |
